In brackets after ≈: the same amount, converted by molar mass. Several values for one entry are separate records, joined by “and”; a condition that tells them apart may be missing. Identical values can stand only once. Activity calls are given as the source filed them. No cut-off for these calls is given here. Positions of bridges follow the written chain, without caps; N, C: chain ends. Non-standard residues stand in square brackets, D forms with d. Residues, ends and D or L forms follow the SMILES beside them. *: point of attachment. Ileψ(thiazoline)Cys = CC[C@H](C)[C@H](N)C1=N[C@H](C(=O)*)CS1; dOrn = NCCC[C@@H](N)C(=O)O
Columns and labels:
[1] = test system: Stenotrophomonas maltophilia; experiment: Antimicrobial activity against Stenotrophomonas maltophilia ATCC 17808 incubated for 16 to 20 hrs by CLSI based broth dilution method; assay type: functional; settings: time 16-20 hrs
[2] = test system: Enterococcus faecium; experiment: Antimicrobial activity against Enterococcus faecium ATCC 29212 incubated for 16 to 20 hrs by CLSI based broth dilution method; assay type: functional
[3] = test system: Erythrocyte; experiment: (§1) Hemolytic activity in sheep erythrocytes incubated for 1 hr by absorbance based analysis; assay type: toxicity, cell-based, Ovis aries; settings: erythrocyte, 1 h
[4] = test system: Escherichia coli; experiment: Antimicrobial activity against Escherichia coli ATCC 25922 incubated for 16 to 20 hrs by CLSI based broth dilution method; assay type: functional; settings: time 16-20 hrs
[5] = test system: Staphylococcus aureus; experiment: Antimicrobial activity against Staphylococcus aureus ATCC 29213 incubated for 16 to 20 hrs by CLSI based broth dilution method; assay type: functional; settings: time 16-20 hrs
[6] = test system: Staphylococcus aureus; experiment: Antimicrobial activity against methicillin-resistant Staphylococcus aureus incubated for 16 to 20 hrs by CLSI based broth dilution method; assay type: functional; settings: time 16-20 hrs
[7] = test system: Staphylococcus aureus; experiment: Induction of drug resistance in Staphylococcus aureus ATCC 29213 at 0.1 times MIC measured after 20 passages; assay type: functional
[8] = as §1; assay type: toxicity, cell-based, Ovis aries, Erythrocyte; settings: sheep erythrocytes
[9] = test system: Staphylococcus aureus; experiment: Antibacterial activity against Staphylococcus aureus ATCC 29213 assessed as inhibition of bacterial growth at 0.5 ug/ml incubated for 16 to 18 hrs in presence of genomic DNA at 0.125 to 4 ug/ml by microplate reader analysis; assay type: functional, organism-based; settings: dose 0.5 µg/ml, time 16-18 hrs
[10] = Induction of drug resistance in Staphylococcus aureus ATCC 29213 assessed as test compound MIC at sub-MIC measured after 20 days (reference value: 1 ug/ml); assay type: functional; settings: ATCC 29213, 480 h, time 20 day
[11] = test system: Staphylococcus aureus; experiment: Antimicrobial activity against methicillin-resistant Staphylococcus aureus infected in Kunming female mouse assessed as reduction in bacterial load in skin administered at labeled position and measured after 24 hrs; assay type: functional, organism-based; settings: dose 5-10 mg/kg/day
[12] = test system: Staphylococcus aureus; experiment: Antimicrobial activity against Staphylococcus aureus; assay type: functional
[13] = Cytotoxicity against human WPMY-1 cells assessed as inhibition of cell growth incubated for 72 hrs by CCK-8 assay; assay type: toxicity, cell-based
[14] = Cytotoxicity against HUVEC cells assessed as inhibition of cell growth incubated for 72 hrs by CCK-8 assay; assay type: toxicity, cell-based; settings: human
[15] = Cytotoxicity against human BGC cells assessed as inhibition of cell growth incubated for 72 hrs by CCK-8 assay; assay type: toxicity, cell-based
[16] = Stenotrophomonas maltophilia, ATCC 17808, read-out: MIC
[17] = Enterococcus faecium, ATCC 29212, time 16-20 hrs, read-out: MIC
[18] = Escherichia coli, ATCC 25922, read-out: MIC
[19] = Staphylococcus aureus, ATCC 29213, read-out: MIC

| Compound | MIC [1, 16] [µg/mL] | MIC [2, 17] [µg/mL] | MIC [4, 18] [µg/mL] | MIC [5, 19] [µg/mL] | HC50 at 1 h [8] [µg/mL] | further results |
| --- | --- | --- | --- | --- | --- | --- |
| CCCCCC[N+](C)(C)CCCOc1ccc2ccccc2c1-c1c(OCCC[N+](C)(C)CCCCCC)ccc2ccccc12.[Br-].[Br-] | 8 | 4 | 8 | 8 |  | MIC [1]: 8 µg/mL; MIC ([2]; time 16-20 hrs): 8 µg/mL; HC50 [3]: 405 µg/mL and 868 µg/mL; MIC [4]: 8 µg/mL; MIC [5]: 8 µg/mL |
| GENTAMICIN |  |  |  |  |  | MIC90 [6]: 2 µg/mL |
| COc1cccc(OC)c1C(=O)N[C@@H]1C(=O)N2[C@@H]1SC(C)(C)[C@@H]2C(=O)O |  |  |  |  |  | Activity [7]: Active |
| O=C(O)c1cn(C2CC2)c2cc(N3CCNCC3)c(F)cc2c1=O |  |  |  |  |  | Activity [7]: Active |
| CCCCCCCCCC[N+](C)(C)CCCOc1ccc2ccccc2c1-c1c(OCCC[N+](C)(C)CCCCCCCCCC)ccc2ccccc12.[Br-].[Br-] | 16 | 16 | 16 | 16 | 228 | MIC [1]: 16 µg/mL; MIC ([2]; time 16-20 hrs): 16 µg/mL; HC50 [3]: 371 µg/mL; MIC [4]: 16 µg/mL; MIC [5]: 16 µg/mL |
| COLISTIN |  |  |  |  |  | Activity [9]: Active |
| CCCCCCCC[N+](C)(C)CCCOc1cccc(-c2cccc(OCCC[N+](C)(C)CCCCCCCC)c2)c1.[Br-].[Br-] | 2 | 0.5 | 1 | 2 | 145 |  |
| C[C@H]1COc2c(N3CCN(C)CC3)c(F)cc3c(=O)c(C(=O)O)cn1c23 |  |  |  |  |  | Activity [7]: Active |
| CCCCCCCCCCCC[N+](C)(C)CCCOc1ccccc1-c1ccccc1OCCC[N+](C)(C)CCCCCCCCCCCC.[Br-].[Br-] | 32 | 4 | 32 | 16 | 12 |  |
| CC[C@H](C)[C@H](N)C1=N[C@H](C(=O)N[C@@H](CC(C)C)C(=O)N[C@H](CCC(=O)O)C(=O)N[C@H](C(=O)N[C@H]2CCCCNC(=O)[C@H](CC(N)=O)NC(=O)[C@@H](CC(=O)O)NC(=O)[C@H](Cc3cnc[nH]3)NC(=O)[C@@H](Cc3ccccc3)NC(=O)[C@H]([C@@H](C)CC)NC(=O)[C@@H](CCCN)NC2=O)[C@@H](C)CC)CS1 [BACITRACIN] ({Ileψ(thiazoline)Cys}-L[dE]IK[dOrn]I[dF]H[dD]N; lactam 4-C) |  | 16 (≈ 11.2 µM) | > 128 | 16 (≈ 11.2 µM) |  |  |
| CCCCCC[N+](C)(C)CCCOc1ccc(-c2ccc(OCCC[N+](C)(C)CCCCCC)cc2)cc1.[Br-].[Br-] | 1 | 1 | 2 | 2 | 487 |  |
| C[C@@H](O)[C@H]1C(=O)N2C(C(=O)O)=C(S[C@@H]3CN[C@H](C(=O)N(C)C)C3)[C@H](C)[C@H]12 [MEROPENEM] |  |  | 0.063 (≈ 0.164 µM) |  | > 1280 |  |
| CCn1cc(C(=O)O)c(=O)c2cc(F)c(N3CCNCC3)cc21 [NORFLOXACIN] |  |  |  |  |  | MIC [10]: 64 µg/mL |
| CC[C@H]1OC(=O)[C@H](C)[C@@H](O[C@H]2C[C@@](C)(OC)[C@@H](O)[C@H](C)O2)[C@H](C)[C@@H](O[C@@H]2O[C@H](C)C[C@H](N(C)C)[C@H]2O)[C@](C)(O)C[C@@H](C)C(=O)[C@H](C)[C@@H](O)[C@]1(C)O [ERYTHROMYCIN] |  |  |  |  |  | MIC90 [6]: 128 µg/mL (≈ 174 µM) |
| CCCCCCCC[N+](C)(C)CCCOc1ccccc1-c1ccccc1OCCC[N+](C)(C)CCCCCCCC.[Br-].[Br-] | 2 | 0.5 | 1 | 1 | 109 |  |
| CCCCCCCC[N+](C)(C)CCCOc1ccc2ccccc2c1-c1c(OCCC[N+](C)(C)CCCCCCCC)ccc2ccccc12.[Br-].[Br-] | 2 | 2 | 2 | 2 | 28 | MIC [1]: 2 µg/mL; MIC ([2]; time 16-20 hrs): 2 µg/mL; HC50 [3]: 20 µg/mL; MIC [4]: 2 µg/mL; MIC [5]: 2 µg/mL |
| CCCCCCCCCC[N+](C)(C)CCCOc1ccc(-c2ccc(OCCC[N+](C)(C)CCCCCCCCCC)cc2)cc1.[Br-].[Br-] | 2 | 0.5 | 2 | 1 | 18 |  |
| CC1(C)S[C@@H]2[C@H](NC(=O)[C@H](N)c3ccccc3)C(=O)N2[C@H]1C(=O)O |  |  |  |  |  | Activity [7]: Active |
| CN[C@H](CC(C)C)C(=O)N[C@H]1C(=O)N[C@@H](CC(N)=O)C(=O)N[C@H]2C(=O)N[C@H]3C(=O)N[C@H](C(=O)N[C@H](C(=O)O)c4cc(O)cc(O)c4-c4cc3ccc4O)[C@H](O)c3ccc(c(Cl)c3)Oc3cc2cc(c3O[C@@H]2O[C@H](CO)[C@@H](O)[C@H](O)[C@H]2O[C@H]2C[C@](C)(N)[C@H](O)[C@H](C)O2)Oc2ccc(cc2Cl)[C@H]1O [VANCOMYCIN] |  |  |  |  | > 1280 | MIC90 [6]: 2 µg/mL (≈ 1.38 µM); Activity [11]: Dose-Dependent Effect |
| CCCCCCCC[N+](C)(C)CCCOc1ccc(-c2ccc(OCCC[N+](C)(C)CCCCCCCC)cc2)cc1.[Br-].[Br-] | 2 | 0.5 | 1 | 1 | 83 |  |
| CCCCCCN(CCCOc1ccccc1-c1ccccc1OCCCN(CCCCCC)C(=O)[C@@H](N)CCCCN)C(=O)[C@@H](N)CCCCN.Cl.Cl.Cl.Cl |  |  |  |  |  | MIC [12]: 0.5 µg/mL |
| C[C@H]1c2cccc(O)c2C(=O)C2=C(O)[C@]3(O)C(=O)C(C(N)=O)=C(O)[C@@H](N(C)C)[C@@H]3[C@@H](O)[C@@H]21.O [DOXYCYCLINE] |  |  |  |  |  | MIC90 [6]: 8 µg/mL |
| CCCCCC[N+](C)(C)CCCOc1ccccc1-c1ccccc1OCCC[N+](C)(C)CCCCCC.[Br-].[Br-] | 128 | 16 | 128 | 2 | > 1280 |  |
| C=C[C@]1(C)C[C@@H](OC(=O)CS[C@@H]2C[C@H]3CC[C@@H](C2)N3C)[C@]2(C)[C@H](C)CC[C@]3(CCC(=O)[C@H]32)[C@@H](C)[C@@H]1O [RETAPAMULIN] |  |  |  |  |  | IC50 at 72 h [13]: 13.9 µg/mL (≈ 26.8 µM); IC50 at 72 h [14]: 25.5 µg/mL (≈ 49.2 µM); IC50 at 72 h [15]: 16 µg/mL (≈ 30.9 µM) |
| CO[C@H]1/C=C/O[C@@]2(C)Oc3c(C)c(O)c4c(O)c(c(/C=N/N5CCN(C)CC5)c(O)c4c3C2=O)NC(=O)/C(C)=C\C=C\[C@H](C)[C@H](O)[C@@H](C)[C@@H](O)[C@@H](C)[C@H](OC(C)=O)[C@@H]1C [RIFAMPIN] |  |  |  |  |  | MIC90 [6]: 128 µg/mL (≈ 156 µM) |
| CCCCCCCCCC[N+](C)(C)CCCOc1ccccc1-c1ccccc1OCCC[N+](C)(C)CCCCCCCCCC.[Br-].[Br-] | 4 | 1 | 4 | 2 | 10 |  |
| CCCCCCCCCC[N+](C)(C)CCCOc1cccc(-c2cccc(OCCC[N+](C)(C)CCCCCCCCCC)c2)c1.[Br-].[Br-] | 2 | 0.5 | 2 | 1 | 19 |  |
| CCCCCCN(CCCOc1ccc(-c2ccc(OCCCN(CCCCCC)C(=O)[C@@H](N)CCCCN)cc2)cc1)C(=O)[C@@H](N)CCCCN.Cl.Cl.Cl.Cl |  |  |  |  |  | MIC [12]: 1 µg/mL |

Source: ChEMBL document CHEMBL5331085 (Eur J Med Chem, 2023)
